Where “and” joins values, the source holds several entries; their conditions need not be identical. Equal values may be shown once.

Sequence of Nonstructural protein 3 (A0A024AXB9 whole entry): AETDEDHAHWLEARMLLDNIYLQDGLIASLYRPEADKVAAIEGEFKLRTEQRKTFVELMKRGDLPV

The experiment has as its target Nonstructural protein 3 (Zika virus, UniProt A0A024AXB9). Put plainly: Functional biochemical assay to identify treatments for viral infectious disease that targets Zika NS2B-NS3 protease. Utilizing a direct enzyme activity measurement method, reading the fluorescence intensity is used to characterize the relative potency of inhibitors as IC50. Set-up: species or system PRVABC59.
By IC50 is commonly meant the concentration at which inhibition is half-maximal. The low end stands for higher potency, the high end for lower potency. Compound `NCc1ccc(-c2ncc(OCC3CCNCC3)nc2-c2ccc(-c3ccoc3)cc2)cc1` gave an IC50 of more than 99.5 µM.

`NCc1ccc(-c2ncc(OCC3CCNCC3)nc2-c2ccc(C3CCOCC3)cc2)cc1`: the IC50 was more than 99.5 µM.

The compound `NCc1cccc(NC(=O)[C@H](NC(=O)OCc2ccccc2)C(C2CCC2)C2CCC2)c1` registered an IC50 of more than 99.5 µM.

`CN1CCN(C2CN(C(=O)c3cc(Br)cc(C=O)c3)C2)CC1` came in with an IC50 of more than 99.5 µM.

Compound `CCn1cc(-c2ccnc(N(C)C)c2)nc(N2CC[C@@H](CO)C2)c1=O` gave an IC50 of more than 99.5 µM.

Turning to `COc1ncccc1-c1ccc([C@@H](NC(=O)OCc2ccccc2)C(=O)Nc2cccc(CN)c2)cc1`, half-maximal inhibition (IC50) required 17.9 µM.

Regarding `O=C(O)c1cc(Cl)ccc1CS(=O)(=O)c1ccc(Oc2ccccc2Cl)cc1`, the IC50 is more than 99.5 µM.

Turning to `CCn1cc(-c2ccc(OC)c(C)c2)nc(N2CC[C@@H](CO)C2)c1=O`, the IC50 was more than 99.5 µM.

In turn, `Cn1cc(Nc2ccc(S(=O)(=O)Nc3ccc(Cl)cc3C(=O)O)cn2)cn1` yielded an IC50 of more than 99.5 µM.

`NCc1cccc(NC(=O)[C@@H](NC(=O)OCc2ccccc2)c2ccc(-c3ccnc(N)c3)cc2)c1`: the IC50 is more than 99.5 µM.

For the compound `CCc1ccc(-c2ccc([C@@H](NC(=O)OCc3ccccc3)C(=O)Nc3cccc(CN)c3)cc2)cc1`, it took 5.8 µM to reach half-maximal inhibition (IC50).

Regarding `CCn1cc(-c2cncc(OC)c2)nc(N2CC[C@@H](CO)C2)c1=O`, the IC50 is more than 99.5 µM.

Take `O=S(=O)(Nc1ccc(Cl)cc1CO)c1ccc(Oc2ccccc2Cl)cc1`: the IC50 is more than 99.5 µM.

`CN1CCN(C2CCN(C(=O)c3cc(C=O)n(C)c3)CC2)CC1` showed an IC50 of more than 99.5 µM.

As to `Cn1nccc1-c1ccc([C@@H](NC(=O)OCc2ccccc2)C(=O)Nc2cccc(CN)c2)cc1`, the IC50 is more than 99.5 µM.

For `CCn1cc(-c2cccc(CN(C)C)c2)nc(N2CC[C@@H](CO)C2)c1=O`, the IC50 was more than 99.5 µM.

In the case of `CCn1cc(-c2ccccc2C(C)C)nc(N2CC[C@@H](CO)C2)c1=O`, the IC50 is more than 99.5 µM.

As for `CCn1cc(-c2ccc3c(c2)CCNC3)nc(N2CC[C@@H](CO)C2)c1=O`, the IC50 is more than 99.5 µM.

`c1ccc2c(CN3CCC(c4nn[nH]n4)CC3)c[nH]c2c1` had an IC50 of more than 99.5 µM.

`COC(=O)c1cc(Cl)ccc1NS(=O)(=O)c1ccc(O)cc1` had an IC50 of more than 99.5 µM.

As to `CCn1cc(-c2cnn(C)n2)nc(N2CC[C@@H](CO)C2)c1=O`, the IC50 was more than 99.5 µM.

In turn, `O=C(O)c1cc(Cl)cc(NS(=O)(=O)c2ccc(Oc3ccccc3Cl)cc2)c1` came in with an IC50 of more than 99.5 µM.

In turn, `CCn1cc(-c2ccc3ocnc3c2)nc(N2CC[C@@H](CO)C2)c1=O` had an IC50 of more than 99.5 µM.

On to `CCOc1cccc(N2CC[C@@H](CO)C2)c1`, for which the IC50 was more than 99.5 µM.

Regarding `CCn1cc(-c2cccc(-n3cccn3)c2)nc(N2CC[C@@H](CO)C2)c1=O`, the IC50 is more than 99.5 µM.

Turning to `NCc1cccc(NC(=O)[C@@H](NC(=O)OCc2ccccc2)c2cccc(Br)c2)c1`, the midpoint of inhibition, the IC50, lay at 64.4 µM.

Regarding `N#Cc1cc(F)cc(N2CC[C@H](CO)C2)c1`, the IC50 is more than 99.5 µM.

As for `CCn1cc(-c2cccc(OC)c2F)nc(N2CC[C@@H](CO)C2)c1=O`, the IC50 is more than 99.5 µM.

In turn, `CCn1cc(-c2cnn(-c3ccccc3)c2)nc(N2CC[C@@H](CO)C2)c1=O` came in with an IC50 of more than 99.5 µM.

For the compound `CCn1cc(-c2cn(C)nc2C)nc(N2CC[C@@H](CO)C2)c1=O`, the IC50 was more than 99.5 µM.

In the case of `Cc1cnc(Oc2ccc(S(=O)(=O)Nc3ccc(Cl)cc3C(=O)O)cc2)cn1`, the IC50 is more than 99.5 µM.

Take `O=C(O)c1cc(Cl)ccc1NS(=O)(=O)c1ccc(Oc2ccccc2Cl)nc1`: the IC50 is more than 99.5 µM.

With `Cc1cc(C)c(C(=O)N2C[C@H]3CN(C)CC[C@@]3(CO)C2)cc1C=O`, the IC50 was more than 99.5 µM.

For `O=C(O)c1cc(Oc2ccc(F)cc2)c(F)cc1NS(=O)(=O)c1ccc(Oc2ccccc2Cl)cc1`, the midpoint of inhibition, the IC50, lay at 3.67 µM.

For `COc1cccc(-c2ccc([C@@H](NC(=O)OCc3ccccc3)C(=O)Nc3cccc(CN)c3)cc2)c1`, the IC50 is 7.03 µM and 8.01 µM.

In turn, `CN(C)C[C@@]1(O)CCN(C(=O)c2cc(C=O)c[nH]2)C1` gave an IC50 of more than 99.5 µM.

For `CC(C)CNC(=O)c1cc(Cl)c(F)cc1NS(=O)(=O)c1ccc(Oc2ccccc2Cl)cc1`, inhibition was half-maximal at 7.81 µM (IC50).

As for `Cc1cccc(-c2ccc([C@@H](NC(=O)OCc3ccccc3)C(=O)Nc3cccc(CN)c3)cc2)c1`, the IC50 was 7.4 µM.

For `COC(=O)c1cc(Cl)ccc1NS(=O)(=O)c1ccc(Oc2ccccc2Cl)nc1`, the IC50 is more than 99.5 µM.

`COC(=O)[C@@H]1CC2(CC[C@@H]1NS(=O)(=O)c1ccc(Oc3ccccc3Cl)cc1)CC2` came in with an IC50 of more than 99.5 µM.

Consider `NCc1cccc(CNC(=O)[C@H](NC(=O)OCc2ccccc2)c2ccc(OCc3ccccc3)cc2)c1`, for which the IC50 stood at 13.1 µM.

As for `NCc1cccc(N2CCN(C(=O)OCc3ccccc3)[C@H](c3ccc(OCc4ccccc4)cc3)C2=O)c1`, inhibition was half-maximal at 21 µM (IC50).

`NCc1cccc(NC(=O)[C@]2(NC(=O)OCc3ccccc3)CCOc3ccccc32)c1` registered an IC50 of more than 99.5 µM.

As to `O=C(O)c1cc(Cl)ccc1NS(=O)(=O)c1ccc(N[C@H]2CCOC2)nc1`, the IC50 is more than 99.5 µM.

Consider `COc1cc(Cl)cc(C(=O)O)c1NS(=O)(=O)c1ccc(Oc2ccccc2Cl)cc1`, for which it took 43.6 µM to reach half-maximal inhibition (IC50).

Take `CS(=O)(=O)NC(=O)c1cc(Cl)ccc1NS(=O)(=O)c1ccc(Oc2ccccc2Cl)cc1`: the IC50 was 36.2 µM.

Turning to `CCc1ccccc1-c1ccc([C@@H](NC(=O)OCc2ccccc2)C(=O)Nc2cccc(CN)c2)cc1`, the IC50 was 5.83 µM.

Take `CCn1cc(C2=CCCNC2)nc(N2CC[C@@H](CO)C2)c1=O`: the IC50 was more than 99.5 µM.

`NCc1cccc(NC(=O)c2cc(Cl)cc(NC(=O)OCc3ccccc3)c2)c1` yielded an IC50 of 4.79 µM.

On to `NCc1cccc(NC(=O)CN2CCN(C(=O)OCc3ccccc3)CC2)c1`, for which the IC50 is more than 99.5 µM.

The compound `O=C(NCC(F)(F)F)c1cc(Cl)c(F)cc1NS(=O)(=O)c1ccc(Oc2ccccc2Cl)cc1` displayed an IC50 of 10.6 µM.

The compound `CCn1cc(-c2ccc3nn(C)cc3c2)nc(N2CC[C@@H](CO)C2)c1=O` returned an IC50 of more than 99.5 µM.

Turning to `CCn1cc(-c2cc(F)ccc2C)nc(N2CC[C@@H](CO)C2)c1=O`, the IC50 is more than 99.5 µM.

On to `NCc1cccc(NC(=O)[C@@H](NC(=O)OCc2ccccc2)c2ccc(-c3ccc(N)nc3)cc2)c1`, for which the IC50 was found to be 73.2 µM.

For `O=C(NCc1cc(Cl)ccc1NS(=O)(=O)c1ccc(Oc2ccccc2Cl)cc1)C1CC1`, the IC50 was more than 99.5 µM.

Compound `NCc1cccc(NC(=O)[C@H](NC(=O)OCc2ccccc2)C2CCCCC2)c1` came in with an IC50 of more than 99.5 µM.

In turn, `Cn1cc(-c2ccc([C@@H](NC(=O)OCc3ccccc3)C(=O)Nc3cccc(CN)c3)cc2)cn1` had an IC50 of more than 99.5 µM.

For the compound `CN(c1ncnc(-c2ccsc2C=O)n1)C1CCNCC1`, the IC50 stood at 98.4 µM.

With `O=C(O)c1ccsc1NS(=O)(=O)c1ccc(Oc2ccccc2Cl)cc1`, the IC50 was found to be 27.8 µM.

For `CCn1cc(-c2c[nH]c3ncccc23)nc(N2CC[C@@H](CO)C2)c1=O`, the IC50 is more than 99.5 µM.

Compound `CCn1cc(-c2ccc(C(F)F)nc2)nc(N2CC[C@@H](CO)C2)c1=O` registered an IC50 of more than 99.5 µM.

The compound `C[C@@H](NC(=O)c1ccc2[nH]cc(C=O)c2c1)C1=CCN(C)CC1` returned an IC50 of more than 99.5 µM.

`COc1ccc(COc2ccc(S(=O)(=O)Nc3ccc(Cl)cc3C(=O)O)cc2)nc1`: the IC50 was more than 99.5 µM.

Consider `CCc1ccc(-c2cn(CC)c(=O)c(N3CC[C@@H](CO)C3)n2)s1`, for which the IC50 was more than 99.5 µM.

As for `NCc1cccc(NC(=O)[C@@H](NC(=O)OCc2ccccc2)c2ccc(-c3cncnc3)cc2)c1`, the IC50 is more than 99.5 µM.

As for `C[C@H]1CN(C(=O)Cc2ccc(C=O)[nH]2)CCN1C1CCCC1`, the IC50 was more than 99.5 µM.

In the case of `CCn1cc(-c2cnccc2C)nc(N2CC[C@@H](CO)C2)c1=O`, the IC50 was more than 99.5 µM.

`NCc1cccc(NC(=O)[C@@H](NC(=O)OCc2ccccc2)c2cccc(OCc3cncnc3)c2)c1` had an IC50 of more than 99.5 µM.

`CCn1cc(-c2cnc3ccnn3c2)nc(N2CC[C@@H](CO)C2)c1=O` registered an IC50 of more than 99.5 µM.

Take `O=C(O)c1cscc1NS(=O)(=O)c1ccc(Oc2ccccc2Cl)cc1`: the IC50 was more than 99.5 µM.

`CC1(C)CCC([C@@H](NC(=O)OCc2ccccc2)C(=O)Nc2cccc(CN)c2)CC1` gave an IC50 of 94.3 µM.

`Cc1ccc(F)c(-c2ccc([C@@H](NC(=O)OCc3ccccc3)C(=O)Nc3cccc(CN)c3)cc2)c1` gave an IC50 of 6.81 µM.

In the case of `NCc1cccc(NC(=O)[C@@H](NC(=O)OCc2ccccc2)c2ccc(-c3cccnc3F)cc2)c1`, half-maximal inhibition (IC50) was put at 45.1 µM.

With `NCc1cccc(NC(=O)[C@@H](NC(=O)OCc2ccccc2)c2ccc(-c3cc4cccnc4s3)cc2)c1`, the IC50 stood at 3.56 µM.

The compound `O=C(O)CN(c1ccc(Cl)cc1)S(=O)(=O)c1ccc(Oc2ccccc2Cl)cc1` displayed an IC50 of more than 99.5 µM.

For the compound `CCn1cc(-c2ccc(CN(C)C)cc2)nc(N2CC[C@@H](CO)C2)c1=O`, the IC50 was more than 99.5 µM.

On to `CCn1nccc1-c1cn(CC)c(=O)c(N2CC[C@@H](CO)C2)n1`, for which the IC50 was more than 99.5 µM.

`CCn1cc(-c2ccc([C@@H](NC(=O)OCc3ccccc3)C(=O)Nc3cccc(CN)c3)cc2)cn1` came in with an IC50 of 97.2 µM.

Compound `O=Cc1ccc(CC(=O)N2C[C@@H](O)[C@H](N3CCOCC3)C2)cc1` came in with an IC50 of more than 99.5 µM.

With `Cc1nccnc1Oc1ccc(S(=O)(=O)Nc2ccc(Cl)cc2C(=O)O)cc1`, the IC50 was more than 99.5 µM.

Take `Cc1n[nH]cc1-c1ccc([C@@H](NC(=O)OCc2ccccc2)C(=O)Nc2cccc(CN)c2)cc1`: the IC50 is more than 99.5 µM.

With `NCc1cccc(NC(=O)C2(CNC(=O)OCc3ccccc3)CCCC2)c1`, the concentration for half-maximal inhibition (IC50) is more than 99.5 µM.

Compound `CCn1cc(-c2cccc(-c3ccccc3)c2)nc(N2CC[C@@H](CO)C2)c1=O` displayed an IC50 of more than 99.5 µM.

In the case of `O=C(O)c1cc(Cl)ccc1NS(=O)(=O)c1ccc(OCc2ncccn2)cc1`, the IC50 is more than 99.5 µM.

`CCn1cc(-c2cn(C)nc2C(F)(F)F)nc(N2CC[C@@H](CO)C2)c1=O` showed an IC50 of more than 99.5 µM.

In turn, `NC(=O)c1ccc(N2CC[C@@H](CO)C2)cc1` gave an IC50 of more than 99.5 µM.

Compound `O=C(NCC1CC1)[C@H]1CCCC[C@H]1NS(=O)(=O)c1ccc(Oc2ccccc2Cl)cc1` displayed an IC50 of more than 99.5 µM.

On to `CCn1cc(-c2ccncc2F)nc(N2CC[C@@H](CO)C2)c1=O`, for which the IC50 was more than 99.5 µM.

`CCn1cc(-c2ccccc2C(=O)OC)nc(N2CC[C@@H](CO)C2)c1=O` registered an IC50 of more than 99.5 µM.

(Values after ChEMBL document CHEMBL5604062, “ASAP - ZIKV NS2B-NS3 protease fluorescence dose response” (2024).)
